Test results: BindingDB's records for doi:10.1016/j.bmcl.2014.05.074 (Seoul National University, 2014)

target: Transient receptor potential cation channel subfamily V member 1 (Homo sapiens, UniProt Q8NER1); test: Antagonist activity at human TRPV1 expressed in CHO cells assessed as inhibition of capsaicin-induced increase in intracellular Ca2+ level by FLIPR assay
Sequence (Q8NER1 whole entry): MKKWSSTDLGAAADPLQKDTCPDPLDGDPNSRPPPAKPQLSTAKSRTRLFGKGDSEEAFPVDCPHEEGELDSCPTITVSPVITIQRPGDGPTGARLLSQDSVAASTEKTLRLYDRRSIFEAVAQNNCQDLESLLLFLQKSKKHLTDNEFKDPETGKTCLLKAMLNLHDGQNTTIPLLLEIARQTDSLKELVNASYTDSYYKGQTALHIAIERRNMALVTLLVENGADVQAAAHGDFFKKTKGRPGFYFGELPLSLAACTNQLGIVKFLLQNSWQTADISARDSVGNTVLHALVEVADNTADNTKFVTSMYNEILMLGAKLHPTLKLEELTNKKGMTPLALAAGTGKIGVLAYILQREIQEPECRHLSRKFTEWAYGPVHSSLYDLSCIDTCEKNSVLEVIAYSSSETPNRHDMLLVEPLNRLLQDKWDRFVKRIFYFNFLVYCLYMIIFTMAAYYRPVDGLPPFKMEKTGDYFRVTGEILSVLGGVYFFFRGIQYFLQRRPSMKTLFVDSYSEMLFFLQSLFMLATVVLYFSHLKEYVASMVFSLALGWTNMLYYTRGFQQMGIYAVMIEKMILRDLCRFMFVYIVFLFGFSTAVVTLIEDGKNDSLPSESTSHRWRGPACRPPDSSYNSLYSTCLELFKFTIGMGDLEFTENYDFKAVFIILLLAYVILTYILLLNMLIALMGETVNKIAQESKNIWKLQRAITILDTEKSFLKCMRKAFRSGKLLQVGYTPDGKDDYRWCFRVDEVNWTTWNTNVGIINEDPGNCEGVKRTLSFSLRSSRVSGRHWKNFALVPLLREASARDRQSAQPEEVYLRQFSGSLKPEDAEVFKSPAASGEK

| Ki | SMILES |
| --- | --- |
| 0.3 nM | CC1CC=C(c2nc(C(F)(F)F)ccc2CNC(=O)C(C)c2ccc(NS(C)(=O)=O)c(F)c2)CC1 (stereo not drawn) |
| 0.1 nM | CC(C(=O)NCc1ccc(C(F)(F)F)nc1C1=C[C@H](C)CCC1)c1ccc(NS(C)(=O)=O)c(F)c1 (stereo partly drawn) |
| 0.1 nM | CCC1CC=C(c2nc(C(F)(F)F)ccc2CNC(=O)C(C)c2ccc(NS(C)(=O)=O)c(F)c2)CC1 (stereo not drawn) |
